Test results: publication PMC7515829, “HKDC1 C-terminal based peptides inhibit extranodal natural killer/T-cell lymphoma by modulation of mitochondrial function and EBV suppression” (Leukemia, 2020)

Tests used:
Kasumi-1 = assay: Cell death IC50 by PI staining/FACS; format: cell-based; settings: Human acute myeloblastic leukemia/EBV(−), 0.1–15 µM, 6 h (suspension) or 12 h (adherent cells), mean ± SEM, read-out: Peptide IC50 (µM), cell death, Kasumi-1
Description: (§1) Measurement of apoptosis and cell death. Apoptosis was evaluated by TUNEL assay using the In Situ Cell Death Detection Kit™ (Roche). Cells were fixed in 4% paraformaldehyde and labeled with TUNEL reagents. Stained cells were photographed by a fluorescence microscope (11). For cell death analysis, the propidium iodide (PI) staining was performed by addition of 6.25 µg/ml of PI to the cells, and cell death was immediately evaluated by FACS analysis (3).

RPMI 8226 = assay: Cell death IC50 by PI staining/FACS; format: cell-based; settings: Human B lymphoblast/EBV(−), 0.1–15 µM, 6 h (suspension) or 12 h (adherent cells), mean ± SEM, read-out: Peptide IC50 (µM), cell death, RPMI 8226
Description: as §1

SNK6 cells [1] = assay: ROS formation (CM-H2DCFDA); format: cell-based, human; settings: 0.5 µM peptide, 6 h, compared with CTL group, n = 5 (Fig. 3a)
Description: Measurement of ROS generation. Treated cells were seeded in a 24-well plate and incubated with 10μM CM-H2DCFDA (Invitrogen) for 45 min at 37°C, and then the intracellular formation of reactive oxygen species (ROS) was measured at excitation/emission wavelengths of 485/530nm using a FLx800 microplate fluorescence reader (Bio-Tek). The data was normalized as arbitrary units (8, 11).

EBV = EBV viral genomes/cell by qPCR in tumor tissue; format: in vivo, mouse; settings: SNK6 xenograft, nude mice; intratumoral 50 µM peptide every 2 days from day ~18; tissue day 50; qPCR vs CTL; n = 4
Description: Detection of EBV copy number. Genomic DNA was extracted from treated SNK-6 cells or SNK-6 tumor tissue in mice using a QIAamp DNA Mini Kit (Qiagen). The EBV DNA copy number was measured through qPCR using 50ng of total DNA with EBV BMRF1 primers (see Table 1), and the results were normalized using cellular β-actin (primers see Table 1) as an internal control (13, 14). The Namalwa cell line, which contains 2 EBV viral genome copies, was used as a standard to prepare calibration curves for both EBV BMRF1 and β-actin genes, and the EBV viral load was presented as the number of viral genomes per cell (15, 16).

SNK6 cells [2] = assay: Cell invasion assay; format: cell-based, human; settings: 0.5 µM peptide, 6 h, Matrigel, vs CTL, n = 5 (Fig. 5c)
Description: (§2) Migration and invasion assays. Cell migration and invasion assays were performed in 24-well chemotaxis plates with an 8μm polycarbonate filter membrane. The plates were coated with 20μg Matrigel for invasion assays and uncoated for migration assays. Invasion and migration were expressed as the number of migrated cells bound per microscopic field and averaged from at least four fields per assay in at least 4 experiments (18, 19).

SNK6 cells [3] = assay: Peptide delivery efficiency, 125I-labeled uptake assay; format: in vitro ADME, human; settings: 125I label on tyrosine, 0.5 µM peptide, 6-h incubation, media and cells counted by liquid scintillation counter, mean, n = 4 (Fig S1)
From the text: We investigated the potential role of HKDC1-based peptides in ENKTL cells that were isolated from the MNCs of ENKTL patients or SNK6 cell line. Three different kinds of HKDC1-based targeting peptides, including the last 15 aa at either the N-terminal (HKN15) or C-terminal (HKC15), or the last eight aa at the C-terminal (HKC8) were selected; four different kinds of cell-penetrating sequences were employed to deliver the HKDC1-based peptides, including Antp (a 16 penetrating residue long sequence from the Drosophila antennapedia-homeodomain), penetration-accelerating segment, TAT (HIV-1 TAT sequence), and Tf (the Tf receptor (TfR) internalization sequence) sequences. All of the aa with the D-configuration (marked as D) were synthesized as retro-inverso peptides. […] We then evaluated the toxic effect of two peptides (including Tf-D-HKC15 and Tf-D-HKC8) on different kinds of primary and cancer cell lines (see details in Table 2). […] We also evaluated the peptide delivery efficiency using ^125I-labeled uptake assay for both Tf-D-HKC8 and Tf-D-HKC15 peptides. […]
Figure S1. […] 0.5µM each of peptide was incubated with SNK6 cells for 6 hours, then both culture media and SNK6 cells were harvested for radioactivity assay using Liquid Scintillation Counter. n=4. *, P<0.05, vs Intracellular group. Results were expressed as mean ± SEM.

SNK6 cells [4] = assay: Cell proliferation by thymidine incorporation; format: cell-based, human; settings: 0.5 µM peptide, 6 h, vs CTL, n = 5 (Fig. 5a)
Description: DNA synthesis by [^3H]-thymidine incorporation. Cell proliferation was evaluated as the rate of DNA synthesis by [^3H]-methylthymidine incorporation (17). […] At the end of the treatment, cells were incubated with serum-free media containing ^3H-methylthymidine (0.5 µCi/well) for 2 hours and then washed twice with PBS. Cellular DNA was precipitated using 10% trichloroacetic acid and solubilized with 0.4M NaOH (0.5 ml/well). Incorporation of ^3H-methylthymidine into the DNA was measured in a scintillation counter and was determined as counts per minute (CPM) (8).

SNK6 cells [5] = assay: Cell migration assay; format: cell-based, human; settings: 0.5 µM peptide, 6 h, vs CTL, n = 5 (Fig. 5b)
Description: as §2

SNK6 cells [6] = assay: 8-OHdG formation (DNA damage ELISA); format: cell-based, human; settings: 0.5 µM peptide, 6 h, vs CTL, n = 5 (Fig. 3c)
Description: Measurement of DNA breaks. 8-OHdG formation was measured using an OxiSelect™ Oxidative DNA Damage ELISA Kit (Cat No. STA320, from Cell Biolabs Inc.) per manufacturers’ instructions. The formation of γH2AX was measured from nuclear extracts by western blotting using H2AX as the input control (8).

SNK6 xenograft = assay: Superoxide anion release from tumor tissue; format: in vivo, mouse; settings: nude mice, intratumoral 50 µM peptide every 2 days from day ~18, tissue day 50, chemiluminescence vs CTL, n = 5
Description: In vivo superoxide release analysis. Superoxide anion (O2^.-) release from tumor tissues was determined using a luminol-EDTA-Fe enhanced chemiluminescence (CL) system supplemented with DMSO-TBAC (Dimethyl sulfoxide-tetrabutyl-ammonium chloride) solution for extraction of released O2^.- from tissues, as described previously (11). Superoxide levels were calculated from the standard curve generated by the xanthine/xanthine oxidase reaction (8).

Row | Substance | IC50 (Kasumi-1) | IC50 (RPMI 8226) | ROS formation (SNK6 cells [1]) | EBV genome replication in tumor (EBV) | cell invasion (SNK6 cells [2]) | peptide delivered into SNK6 cells (delivery efficiency) (SNK6 cells [3]) | thymidine incorporation (SNK6 cells [4]) | cell migration (SNK6 cells [5]) | 8-OHdG formation (SNK6 cells [6]) | superoxide anion release from tumor (SNK6 xenograft)
1 | HAIYPRH-ITAVAKRLQQAQKEN [Tf-D-HKC15] | 2.7 ± 0.9 µM | 1.9 ± 0.7 µM | 165% | 59% | 61% | 35.6% | 71% | 66% | 157% | 203%
2 | HAIYPRH-LQQAQKEN [Tf-D-HKC8] | 1.8 ± 0.6 µM | 1.3 ± 0.6 µM | 229% | 25% | 29% | 53.4% | 28% | 23% | 209% | 297%
